Experimental data from US20240052582A1, “COMPOSTABLE TURF WITH DECOMPOSITION INHIBITOR” (Polytex Sportbelage Produktions-GmbH, priority 2017, published 2024).

Test: Amount of decomposition inhibitor necessary for a minimum life expectancy of compostable artificial or hybrid turf
Settings: inhibitor within backing
From the text: Due to the wide variety of use case scenarios, stadium architectures and climatic conditions, the amount of decomposition inhibitor that ensures a sufficient life expectancy without unduly delaying the decomposition process is preferably determined empirically.

## Oc1cc(Cl)ccc1Oc1ccc(Cl)cc1Cl [Triclosan, 5-chlor-2-(2,4-dichlorphenoxy)-phenol]
Life expectancy at least 6 Month
  Amount of Decomposition inhibitor necessary for a life expectancy of the turf material of at least [. . .] 6 Month: 0.0005% by % by weight of backing
Life expectancy at least 12 Month
  Amount of Decomposition inhibitor necessary for a life expectancy of the turf material of at least [. . .] 12 Month: 0.001% by % by weight of backing
